Measured values from the supplement of paper PMC10307832.

Tests used:
Test in all cases: relative viability (nuclei count vs DMSO), 5 days (fraction); higher = more cells survive
[1] = compound: C1CC(C1)(C(=O)O)C(=O)O.[NH2-].[NH2-].[Pt+2] [Carboplatin] + O=C(c1cc(Cc2n[nH]c(=O)c3ccccc23)ccc1F)N1CCN(C(=O)C2CC2)CC1 [Olaparib] (partner 8 µM)
Outline: (§1)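 Lung cancer cell lines were pin-tool dosed in 1536-well plates on the day after seeding, with either a lone drug or a fixed anchor-drug dose plus five library-drug doses (not always all listed) in √10 steps. Nuclei were counted on 4× images after 5 days. Relative viability is the ratio of treated-well to vehicle-well nuclei counts, with each value a median of duplicate plates.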

[2] = compound: CC[C@H](C)N1C=C(C2=C(C=C(C=C21)C3=CN=C(C=C3)N4CCNCC4)C(=O)NCC5=C(C=C(NC5=O)C)C)C [GSK126] + N=C(N)NC(=N)NCCc1ccccc1 [Phenformin] (partner 250 µM)
Outline: as §1

[3] = compound: CC[C@H](C)N1C=C(C2=C(C=C(C=C21)C3=CN=C(C=C3)N4CCNCC4)C(=O)NCC5=C(C=C(NC5=O)C)C)C [GSK126] + Nc1nc2[nH]cc(CCc3ccc(C(=O)N[C@@H](CCC(=O)O)C(=O)O)cc3)c2c(=O)[nH]1 [Pemetrexed] (partner 0.2 µM)
Outline: as §1

[4] = compound: CC[C@H](C)N1C=C(C2=C(C=C(C=C21)C3=CN=C(C=C3)N4CCNCC4)C(=O)NCC5=C(C=C(NC5=O)C)C)C [GSK126] + O=C(c1cc(Cc2n[nH]c(=O)c3ccccc23)ccc1F)N1CCN(C(=O)C2CC2)CC1 [Olaparib] (partner 8 µM)
Outline: as §1

Cell Line	relative viability ([1]; first compound 0.08 µM)	relative viability ([1]; first compound 0.253 µM)	relative viability ([1]; first compound 0.8 µM)	relative viability ([1]; first compound 2.53 µM)	relative viability ([1]; first compound 8 µM)	relative viability ([2]; first compound 0.08 µM)	relative viability ([2]; first compound 0.253 µM)	relative viability ([2]; first compound 0.8 µM)	relative viability ([2]; first compound 2.53 µM)	relative viability ([2]; first compound 8 µM)	relative viability ([3]; first compound 0.08 µM)	relative viability ([3]; first compound 0.253 µM)	relative viability ([3]; first compound 0.8 µM)	relative viability ([3]; first compound 2.53 µM)	relative viability ([3]; first compound 8 µM)	relative viability ([4]; first compound 0.08 µM)	relative viability ([4]; first compound 0.253 µM)	relative viability ([4]; first compound 0.8 µM)	relative viability ([4]; first compound 2.53 µM)	relative viability ([4]; first compound 8 µM)
NCI-H1755	0.861	0.895	0.88	0.854	0.784	0.656	0.637	0.614	0.562	0.555	0.401	0.483	0.402	0.403	0.36	0.9	0.922	0.877	0.826	0.822
NCI-H2009	0.65	0.653	0.658	0.594	0.437	0.506	0.467	0.442	0.43	0.359	1.11	1.03	1	0.982	1.06	0.755	0.653	0.714	0.588	0.713
LK-2	0.743	0.702	0.726	0.65	0.844	0.658	0.522	0.454	0.334	0.352	0.306	0.297	0.293	0.325	0.223	0.904	0.71	0.727	0.859	0.689
HCC-827	0.61	0.651	0.639	0.593	0.564	0.408	0.385	0.441	0.388	0.411	0.264	0.285	0.249	0.27	0.287	0.725	0.642	0.617	0.726	0.601
NCI-H322M	0.761	0.818	0.779	0.686	0.65	0.826	0.787	0.849	0.875	0.817	0.543	0.621	0.615	0.648	0.641	0.818	0.807	0.806	0.829	0.78
NCI-H1944	0.388	0.469	0.369	0.367	0.366	0.194	0.196	0.183	0.168	0.178	0.719	0.641	0.607	0.654	0.567	0.431	0.376	0.402	0.408	0.387
BEN	1.21	1.12	1.11	0.837	0.596	0.268	0.243	0.234	0.232	0.217	0.881	0.715	0.832	0.896	0.785	1.23	1.01	1.16	1.13	1.12
CAL-12T	0.727	0.783	0.673	0.741	0.648	0.617	0.568	0.572	0.519	0.63	1.31	1.37	1.09	1.13	1.43	0.809	0.713	0.758	0.829	0.643
NCI-H2170	0.621	0.668	0.555	0.567	0.37	0.386	0.427	0.393	0.391	0.376	0.249	0.245	0.271	0.256	0.264	0.603	0.669	0.559	0.54	0.529
SW 900	0.814	0.968	0.874	0.818	0.823	0.637	0.479	0.721	0.502	0.576	0.498	0.45	0.463	0.46	0.493	0.909	0.751	0.866	0.885	0.888
NCI-H1792	0.72	0.548	0.412	0.289	0.265	0.344		0.262	0.255	0.228	0.89	0.727	0.806	0.698	0.818	0.471	0.351	0.507	0.374	0.551
NCI-H2085	0.817	0.844	0.761	0.786	0.687	0.871	0.667	0.677	0.725	0.732	1.03	0.874	0.894	0.854	0.978	0.77	0.784	0.764	0.771	0.762
LCLC-103H	0.754	0.783	0.777	0.74	0.754	0.331	0.383	0.377	0.344	0.39	0.397	0.499	0.431	0.469	0.538	0.837	0.791	0.774	0.792	0.795
EKVX	0.856	0.81	0.872	0.734	0.671	0.229	0.252	0.246	0.218	0.231	0.403	0.373	0.413	0.374	0.31	0.929	1	0.808	1.11	0.816
201T	0.869	0.836	0.872	0.822	0.774	0.478	0.46	0.443	0.437	0.387	0.346	0.342	0.329	0.367	0.328	0.867	0.845	0.831	0.906	0.886
